Where a name gives a salt, the structure may show the parent alone.
Assays:
Format in all cases: biochemical
human LSD1(171-852) = target: T1, human LSD1(171-852) (Homo sapiens, UniProt O60341); assay: Measurement of LSD1 inhibitory activity (time-resolved fluorescence, biotin-histone H3 mono methylated K4 peptide); conditions: read-out: LSD1 IC50 value
T1 construct: to give hLSD1(171-852) purified product; made in house; host or cells: Escherichia coli C43(DE3) pLysS

MAO-A = target: T2, MAO-A (Homo sapiens, UniProt P21397); assay: Measurement of MAO-A inhibitory activity (MAO-Glo Assay)
T2 construct: purchased Sigma-Aldrich Co. LLC
T2 sequence (P21397 1-527): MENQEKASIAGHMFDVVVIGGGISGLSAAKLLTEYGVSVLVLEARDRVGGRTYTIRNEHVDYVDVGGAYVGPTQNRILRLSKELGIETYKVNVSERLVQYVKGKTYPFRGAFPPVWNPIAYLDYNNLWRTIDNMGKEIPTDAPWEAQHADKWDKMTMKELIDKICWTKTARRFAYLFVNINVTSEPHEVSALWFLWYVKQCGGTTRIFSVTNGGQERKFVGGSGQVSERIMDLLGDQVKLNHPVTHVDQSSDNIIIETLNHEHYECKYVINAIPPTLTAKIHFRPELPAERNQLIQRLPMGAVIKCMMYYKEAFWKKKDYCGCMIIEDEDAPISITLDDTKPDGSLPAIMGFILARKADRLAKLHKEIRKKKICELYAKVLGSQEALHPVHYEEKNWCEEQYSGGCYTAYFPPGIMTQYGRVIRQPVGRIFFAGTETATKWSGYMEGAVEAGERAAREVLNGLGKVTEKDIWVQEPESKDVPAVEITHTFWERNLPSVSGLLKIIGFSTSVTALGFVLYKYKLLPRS
Procedure, shortened: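 Luminescent MAO-Glo read-out: % inhibition computed from counts relative to enzyme-only control and enzyme-free blank. Compound and 400 ng MAO-A in HEPES pH 7.5 with 5% glycerol stood 10 min at room temperature before MAO substrate (160 μM stock) started a 60 min reaction.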

MAO-B = target: T3, MAO-B (Homo sapiens, UniProt P27338); assay: Measurement of MAO-B inhibitory activity (MAO-Glo Assay)
T3 construct: purchased Sigma-Aldrich Co. LLC
T3 sequence (P27338 1-520): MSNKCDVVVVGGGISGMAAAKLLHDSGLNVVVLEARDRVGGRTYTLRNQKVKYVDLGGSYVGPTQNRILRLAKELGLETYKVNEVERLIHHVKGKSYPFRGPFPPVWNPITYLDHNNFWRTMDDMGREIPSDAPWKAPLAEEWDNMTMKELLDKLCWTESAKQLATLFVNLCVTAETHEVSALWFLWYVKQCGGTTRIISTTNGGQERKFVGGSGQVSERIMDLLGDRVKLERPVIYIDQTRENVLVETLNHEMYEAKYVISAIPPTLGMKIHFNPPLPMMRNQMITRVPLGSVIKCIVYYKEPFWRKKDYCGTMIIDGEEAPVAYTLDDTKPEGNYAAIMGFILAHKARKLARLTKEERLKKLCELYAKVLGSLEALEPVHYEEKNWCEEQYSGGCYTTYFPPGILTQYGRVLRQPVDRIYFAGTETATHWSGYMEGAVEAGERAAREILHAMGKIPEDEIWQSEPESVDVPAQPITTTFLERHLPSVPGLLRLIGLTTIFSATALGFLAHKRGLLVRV
Procedure, shortened: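 Percent inhibition was calculated from luciferin-based luminescence, corrected with a blank lacking enzyme and a control lacking compound. The reaction ran 60 min at room temperature after adding MAO substrate (16 µM as added). This followed a 10 min compound–enzyme preincubation in HEPES pH 7.5 buffer.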

Structure (SMILES)	IC50 (human LSD1(171-852)) [µM]	IC50 (MAO-A) [µM]	IC50 (MAO-B) [µM]
O=C(Nc1ccc([C@@H]2C[C@H]2NCc2ccccc2)cc1)c1cccc(N2CCCCC2)c1 (relative stereo) [Example 32, N-{4-[trans-2-(benzylamino)cyclopropyl]phenyl}-3-piperidin-1-ylbenzamide]	< 0.1	> 10	> 10
O=C(Nc1ccc([C@@H]2C[C@H]2NC2CCS(=O)(=O)CC2)cc1)c1cccc(C(F)(F)F)c1 (relative stereo) [Example 151, N-(4-{trans-2-[(1,1-dioxidotetrahydro-2H-thiopyran-4-yl)amino]cyclopropyl}phenyl)-3-(trifluoromethyl)benzamide hydrochloride]	< 0.1	> 10	> 10
O=C(Nc1ccc([C@@H]2C[C@H]2NC2CCCCCCC2)cc1)c1ccc(-c2ccccc2)cc1 (relative stereo) [Example 45, N-{4-[trans-2-(cyclooctyl-amino)cyclo-propyl]phenyl}-biphenyl-4-carboxamide]	0.29	> 10	> 10
O=C(Nc1ccc([C@@H]2C[C@H]2NCC2CC2)cc1)c1ccc2ncsc2c1 (relative stereo) [Example 90, N-(4-{trans-2-[(cyclopropylmethyl)amino]cyclopropyl}-phenyl)-1,3-benzothiazole-6-carboxamide]	< 0.1	> 10	> 10
O=C(Nc1ccc([C@@H]2C[C@H]2NC2CCN(Cc3ccccc3)CC2)cc1)c1ccc(-c2ccccc2)cc1 (relative stereo) [Example 51, N-(4-{trans-2-[(1-benzylpiperidin-4-yl)amino]cyclo-propyl}phenyl)-biphenyl-4-carboxamide]	0.1	> 10	> 10
O=C(Nc1ccc([C@@H]2C[C@H]2NCC2CC2)cc1)c1ccc(-c2ccccc2)o1 (relative stereo) [Example 123, N-(4-{trans-2-[(cyclopropyl-methyl)amino]cyclo-propyl}phenyl)-5-phenyl-2-furamide]	< 0.1	5	> 10
CN(C(=O)c1ccc(-c2ccccc2)cc1)c1ccc([C@@H]2C[C@H]2NCC2CC2)cc1 (relative stereo) [Example 64, N-(4-{trans-2-[(cyclopropylmethyl)amino]cyclopropyl}phenyl)-N-methylbiphenyl-4-carboxamide hydrochloride]	0.2	8.5	> 10
O=C(Nc1cccc(C(=O)Nc2ccc([C@@H]3C[C@H]3NCc3ccccc3)cc2)c1)c1ccccc1 (relative stereo) [Example 31, N-{4-[trans-2-(benzylamino)cyclopropyl]phenyl}-3-[(phenylcarbonyl)amino]benzamide]	< 0.1	> 10	> 10
Cn1cc(C(=O)Nc2ccc([C@@H]3C[C@H]3NCC3CC3)cc2)c(C(F)(F)F)n1 (relative stereo) [Example 158, N-(4-{trans-2-[(cyclopropylmethyl)amino]cyclopropyl}phenyl)-1-methyl-3-(trifluoromethyl)-1H-pyrazole-4-carboxamide hydrochloride]	< 0.1	> 10	> 10
O=C(Nc1ccc([C@@H]2C[C@H]2NCc2ccccc2)cc1)c1cccc(-c2ccccc2)c1 (relative stereo) [Example 36, N-{4-[trans-2-(benzylamino)cyclopropyl]phenyl}biphenyl-3-carboxamide]	< 0.1	4.6	> 10
C=CCOC(=O)N1CCC(N[C@@H]2C[C@H]2c2ccc(NC(=O)c3ccc(-c4ccccc4)cc3)cc2)CC1 (relative stereo) [Example 55, allyl 4-{[trans-2-{4-[(biphenyl-4-yl-carbonyl)amino]-phenyl}cyclo-propyl]amino}-piperidine-1-carboxylate]	0.13	> 10	> 10
CCC(CC)N[C@@H]1C[C@H]1c1ccc(NC(=O)c2ccc(-c3ccccc3)cc2)cc1 (relative stereo) [Example 49, N-(4-{trans-2-[(1-ethylpropyl)amino]-cyclopropyl}phenyl)-biphenyl-4-carboxamide]	< 0.1	> 10	> 10
O=C(Nc1ccc([C@@H]2C[C@H]2NCc2ccccc2)cc1)c1ccc(-c2ccccc2)cc1 (relative stereo) [Example 35, N-{4-[trans-2-(benzylamino)cyclopropyl]phenyl}biphenyl-4-carboxamide]	0.13	1.3	> 10
CN(C)c1ccc(CN[C@@H]2C[C@H]2c2ccc(NC(=O)c3cccc(C(F)(F)F)c3)cc2)cc1 (relative stereo) [Example 110, N-[4-(trans-2-{[4-(dimethylamino)benzyl]amino)cyclopropyl}phenyl]-3-(trifluoromethyl)benzamide dihydrochloride]	< 0.1	> 10	> 10
O=C(Nc1ccc([C@@H]2C[C@H]2NCC2CC2)cc1)c1ccc(-c2csnn2)cc1 (relative stereo) [Example 119, N-(4-{trans-2-[(cyclopropylmethyl)amino]cyclopropyl}-phenyl)-4-(1,2,3-thiadiazol-4-yl)benzamide]	< 0.1	0.1	> 10
CC(C)(C)c1ccc(-c2ccc(C(=O)Nc3ccc([C@@H]4C[C@H]4NCC4CC4)cc3)cc2)cc1 (relative stereo) [Example 120, 4′-tert-butyl-N-(4-{trans-2-[(cyclopropylmethyl)amino]cyclopropyl}-phenyl)biphenyl-4-carboxamide]	1.6	> 10	> 10
O=C(Nc1ccc([C@@H]2C[C@H]2NCCOCc2ccccc2)cc1)c1ccccc1 (relative stereo) [Example 26, N-[4-(trans-2-{[2-(benzyloxy)-ethyl]amino}-cyclopropyl)-phenyl]benzamide]	< 0.1	9.2	> 10
O=C(Nc1ccc([C@@H]2C[C@H]2NCCOCc2ccccc2)cc1)c1ccc(-c2ccccc2)cc1 (relative stereo) [Example 52, N-{4-[trans-2-{[2-(benzyloxy)ethyl]-amino}cyclopropyl]-phenyl}biphenyl-4-carboxamide]	0.16	> 10	> 10
CC(C)N1CCC(N[C@@H]2C[C@H]2c2ccc(NC(=O)c3cccc(C(F)(F)F)c3)cc2)CC1 (relative stereo) [Example 112, N-[4-(trans-2-{[1-(1-methylethyl)piperidin-4-yl]amino}cyclopropyl)phenyl]-3-(trifluoromethyl)benzamide dihydrochloride]	< 0.1	> 10	> 10
Cc1cc(C(=O)Nc2ccc([C@@H]3C[C@H]3NCC3CC3)cc2)nn1C (relative stereo) [Example 157, N-(4-{trans-2-[(cyclopropylmethyl)amino]cyclopropyl}phenyl)-1,5-dimethyl-1H-pyrazole-3-carboxamide dihydrochloride]	0.1	> 10	> 10
O=C(Nc1ccc([C@@H]2C[C@H]2NCC2CC2)cc1)c1ccc2c(c1)CCCC2 (relative stereo) [Example 85, N-(4-{trans-2-[(cyclopropylmethyl)amino]cyclopropyl}-phenyl)-5,6,7,8-tetrahydronaphtha-lene-2-carboxamide]	< 0.1	9.1	4.9
O=C(Nc1ccc([C@@H]2C[C@H]2NCc2cccs2)cc1)c1ccccc1 (relative stereo) [Example 13, N-(4-{trans-2-[(thiophen-2-ylmethyl)amino]-cyclopropyl}-phenyl)benzamide]	< 0.1	> 10	> 10
